Reference: US20030124590A1, “Carbohydrate response element binding protein and uses thereof” (priority 2001, published 2003)

Legend:
L-PK gene = assay: L-PK promoter luciferase reporter in ChREBP-transfected primary hepatocytes with kinase/phosphatase inhibitors or db-cAMP; conditions: treatment with db-cAMP, low and high glucose
Protocol: Primary hepatocytes were prepared from male Sprague-Dawley rats using the collagenase (Life Technologies, Inc.) perfusion method (Berry and Friend (1969) J Cell Bio […], 506-520) and plated in collagen-coated six-well tissue culture plates (Primaria Falcon, Franklin Lakes, N.J.) at a density of 1×10^6 cells/well in glucose-free Dulbecco's modified Eagle's medium (Life Technologies, Inc.) supplemented with 100 nM dexamethasone, 10 nM insulin, 100 units/ml penicillin, 100 μg/ml streptomycin and 10% dialyzed fetal bovine serum (Life Technologies, Inc.). Following attachment, synthetic liposomes were used to transfect hepatocytes with 0.5 μg of the luciferase reporter plasmid and 0.1 μg of the internal control plasmid pRL-TK. After 14 h the media was replaced by Dulbecco's modified Eagle medium supplemented with 100 nM dexamethasone, 10 nM insulin, 10% Fetal Bovine Serum and either 10 mM lactate, 5.5 mM glucose or 27.5 mM glucose. The cells were incubated for an additional 12 h prior to determination of luciferase activity using the Dual-Luciferase Reporter Assay System (Promega).
Protein Kinase and Protein Phosphatase Inhibitors—Prior to exchange to 5.5 or 27.5 mM glucose medium, transfected primary culture hepatocytes were treated for 1 h with 10 μM H-89, 500 nM cantharidic acid (Calbiochem), 5 μM KN-62 (Calbiochem), 30 μM PD98059 (Calbiochem), 50 μM Genistein, or dimethylsulfoxide vehicle.
Rat primary cultured hepatocytes were transfected a plasmid comprising a gene encoding the wild type (WT)-ChREBP. H-89, cantharidic acid, or dimethylsulfoxide vehicle was added, and the cells were incubated in 5.5 mM (□) or 27.5 mM (▪) glucose for 12 h.
Rat primary cultured hepatocytes were transfected with wild type (WT)-ChREBP, S626A, S626D, T666A, or T666D. After transfection, the cells were incubated in 5.5 mM (□) or 27.5 mM (▪) glucose for 12 h. […] Rat primary cultured hepatocytes were transfected with wild type (WT)-ChREBP, S196A+S626A, or S196A+T666A. After transfection, cells were incubated under 5.5 mM (□) or 27.5 mM (▪) glucose, and cAMP was added both low and high glucose.

GFP-fused ChREBP = assay: Subcellular localization of GFP-fused ChREBP in primary hepatocytes (confocal microscopy); format: cell-based, rat; conditions: within 10 min after addition of db-cAMP into 27.5 mM glucose medium, preliminary, n=3
Protocol: Determination of Subcellular Localization of ChREBP—Subcellular localization of GFP-fused WT-ChREBP or its mutants was determined using a confocal laser scanning microscope (Bio Rad, Hercules, Calif.). In order to quantitate nuclear localization of ChREBP, for each condition, 100 transfected hepatocytes from 5 independent experiments were scored in a blinded fashion as to whether the GFP-fused ChREBP was predominantly nuclear or cytoplasmic. The identity of the nucleus was verified by comparative phase-contrast microscopy. B. Results
Rat primary cultured hepatocytes were transfected with a plasmid comprising a gene encoding the GFP-fused wild type-ChREBP or NLS domain deletion mutants. […] The values are expressed as mean±SE. *P<0.05 compared to that of wild type-ChREBP.

ChREBP [1] = assay: Intraperitoneal db-cAMP in rats, gel shift of liver nuclear extracts; format: in vivo, rat; conditions: rats fed high carbohydrate diet, db-cAMP 1 mmol/kg intraperitoneally
Protocol: Treatment of Rats with Dibutyryl (db)-cAMP and Nuclear Extract Preparation—Male Sprague-Dawley rats weighting 250 g were used in all experiments. After 48 h starvation, the rats were fed a high carbohydrate diet and db-cAMP (1 mmol/kg) was injected intraperitoneally. The rats were sacrificed 10 min and 30 min after injection and nuclear extracts were prepared immediately from rat liver as described in Example 1. Gel shifts were performed as described in Example 2.

AMPK = AMPK activity in hepatocytes (SAMS peptide); format: cell-based, rat; conditions: fatty acid added to high glucose medium
Protocol: The extract was centrifuged at 15,800·g for 15 min, and the resulting supernatant solution was transferred to a fresh tube, adjusted to 10% with polyethylene glycol 8000 ([…], France), and incubated on ice for 20 min. Following centrifugation at 15,800·g for 15 min, the pellet was suspended in 100 μl buffer A. […] A. (2000) Proc. Natl. Acad. Sci. USA. 97, 4023-4028).

cultured hepatocytes = assay: AMP, ADP, ATP assays in cultured hepatocytes; format: cell-based, rat; conditions: hepatocytes 12 h with 150 µM fatty acid, mean±S.E., n=4
Protocol: Hepatocytes were scraped and collected directly into 0.5 ml of ice-cold 6% (v/v) HClO4. The concentrations of ADP and ATP were determined enzymatically in the acid-extract with methods described (Kawaguchi, T., Veech, R. L., and Uyeda, K. (2001) J. Biol. Chem. 276, 28554-28561), and the cytosolic AMP was calculated by the method of Veech et al. (Veech, R. L., Lawson, J. W., Cornell, N. W., and Krebs, H. A. (1979) J. Biol. Chem. 254, 6538-6547).
Values are expressed as mean±S.E. (n=4).

ChREBP [2] = assay: Gel shift of purified ChREBP after incubation with PKA/PP2A in vitro; format: biochemical, rat; conditions: catalytic subunit of PP2A 0.025 U/μl added
Protocol: Gel shift assay. Gel mobility shift assays were performed as described by Liu et al. (Liu et al. (1993) J Biol Chem 268, 12787-12795). Double-stranded oligonucleotides (Table 1) were prepared by mixing equal amounts of the complementary single-stranded DNAs in 50 mM NaCl, heating to 70° C. for 15 min, and cooling to room temperature. The annealed oligonucleotides were labeled with ^32P in the presence of [γ^32P]-ATP (Amersham Pharmacia) and T4 polynucleotide kinase (New England Biolabs). Binding reactions were carried out in reaction mixture containing 20 mM Hepes (pH 7.9), 50 mM KCl, 5 mM DTT, 0.2 mM EDTA, 0.5 mM PMSF, 10% glycerol, 1 μg/μl of poly(dI-dC) (Amersham Pharmacia) and 1 μg/μl of nuclear extract. The reaction mixture was incubated at room temperature for 30 min and DNA-protein complexes were separated by electrophoresis in a 4.5% nondenaturing polyacrylamide gel.
Purified ChREBP was incubated with PKA and/or PP2A in vitro and measured by gel-shift analysis with the [^32P]-radiolabeled WT oligonucleotide. Purified ChREBP was incubated for 20 min with ATP (1 mM), PKA (0.1 U/μl), 0.2 U/μl PKI, 0.025 U/μl PP2A and the PP2A inhibitor, okadaic acid (10 nM).

[3] = tested on: C-terminus ChREBP (bHLH/ZIP domain, Thr666); assay: Phosphorylation/dephosphorylation and DNA binding of recombinant C-terminus ChREBP; format: biochemical, mouse; conditions: catalytic subunit of PP2A 200 units, 30° C
Source text: Recombinant Protein Production—Recombinant protein of mouse ChREBP was expressed in Escherichia coli by inserting the C-terminus of the ChREBP construct, encoding the amino acids 651-864 of ChREBP+His6 tag, into the BamHI and HindIII sites of the T7-based expression vector pMal-c2 (New England Bio Lab, Beverly, Mass.) to produce an N-terminal fusion with maltose-binding protein. Expressed protein was purified according to manufacturer's instruction.
Phosphorylation and Dephosphorylation of ChREBP—The reaction mixture contained, in a final volume of 0.2 ml, 50 mM Tris/Cl pH 7.5, 0.2 μM [γ-^32P]ATP (3000 Ci/mmol), 5 mM MgCl2, 0.2 mM EDTA, 2 mM dithiothreitol, and 5 mM potassium phosphate. […] At given time intervals, aliquots were removed and DNA-binding activity was determined by gel shift assay as described in Example 2. [^32P]phosphate-bound ChREBP was also determined as previously described (Kitajima and Uyeda (1983) J. Biol Chem 258, 7352-7357).
FIG. 13A is a graph showing that phosphate incorporation mediated by PKA correlates directly with DNA binding. […] At given time intervals, [^32P]phosphate incorporation (□) and DNA-binding activity (▪) were determined. Values are expressed as mean±SE. […] At given time intervals, remaining phosphorylated C-terminus ChREBP (□) and DNA-binding activity (▪) were determined. Values are expressed as mean±SE.

[4] = target: T1, ChREBP (Carbohydrate Response Element Binding Protein) from rat liver (UniProt Q8VIP2)
T1 sequence: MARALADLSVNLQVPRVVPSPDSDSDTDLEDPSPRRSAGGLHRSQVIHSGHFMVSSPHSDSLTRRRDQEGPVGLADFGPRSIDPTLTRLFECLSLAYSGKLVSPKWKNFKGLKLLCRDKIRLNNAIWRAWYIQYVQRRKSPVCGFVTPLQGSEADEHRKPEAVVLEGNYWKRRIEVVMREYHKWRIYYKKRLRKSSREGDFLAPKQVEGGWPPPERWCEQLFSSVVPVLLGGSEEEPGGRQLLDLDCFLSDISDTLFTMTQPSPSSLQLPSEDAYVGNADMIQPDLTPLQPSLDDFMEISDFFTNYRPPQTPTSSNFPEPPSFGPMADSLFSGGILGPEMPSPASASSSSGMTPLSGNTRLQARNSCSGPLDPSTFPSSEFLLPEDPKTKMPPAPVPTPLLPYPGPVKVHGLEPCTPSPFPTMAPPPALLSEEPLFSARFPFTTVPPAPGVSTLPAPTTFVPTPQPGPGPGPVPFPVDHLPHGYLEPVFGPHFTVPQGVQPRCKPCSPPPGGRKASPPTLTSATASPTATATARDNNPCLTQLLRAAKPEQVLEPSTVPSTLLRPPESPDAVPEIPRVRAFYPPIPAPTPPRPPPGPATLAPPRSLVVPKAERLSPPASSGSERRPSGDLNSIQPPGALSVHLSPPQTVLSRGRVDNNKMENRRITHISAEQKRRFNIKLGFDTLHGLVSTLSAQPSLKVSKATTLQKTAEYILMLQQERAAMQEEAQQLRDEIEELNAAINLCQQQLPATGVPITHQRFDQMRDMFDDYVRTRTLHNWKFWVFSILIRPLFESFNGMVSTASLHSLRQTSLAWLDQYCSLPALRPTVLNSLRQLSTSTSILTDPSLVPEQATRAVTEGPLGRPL

[5] = target: T2, ChREBP, purified from rat liver (Rattus norvegicus, UniProt Q8VIP2 Q8VIP2:1-865); assay: pulldown; DNA-affinity column; eluted at 0.8 M KCl
T2 sequence: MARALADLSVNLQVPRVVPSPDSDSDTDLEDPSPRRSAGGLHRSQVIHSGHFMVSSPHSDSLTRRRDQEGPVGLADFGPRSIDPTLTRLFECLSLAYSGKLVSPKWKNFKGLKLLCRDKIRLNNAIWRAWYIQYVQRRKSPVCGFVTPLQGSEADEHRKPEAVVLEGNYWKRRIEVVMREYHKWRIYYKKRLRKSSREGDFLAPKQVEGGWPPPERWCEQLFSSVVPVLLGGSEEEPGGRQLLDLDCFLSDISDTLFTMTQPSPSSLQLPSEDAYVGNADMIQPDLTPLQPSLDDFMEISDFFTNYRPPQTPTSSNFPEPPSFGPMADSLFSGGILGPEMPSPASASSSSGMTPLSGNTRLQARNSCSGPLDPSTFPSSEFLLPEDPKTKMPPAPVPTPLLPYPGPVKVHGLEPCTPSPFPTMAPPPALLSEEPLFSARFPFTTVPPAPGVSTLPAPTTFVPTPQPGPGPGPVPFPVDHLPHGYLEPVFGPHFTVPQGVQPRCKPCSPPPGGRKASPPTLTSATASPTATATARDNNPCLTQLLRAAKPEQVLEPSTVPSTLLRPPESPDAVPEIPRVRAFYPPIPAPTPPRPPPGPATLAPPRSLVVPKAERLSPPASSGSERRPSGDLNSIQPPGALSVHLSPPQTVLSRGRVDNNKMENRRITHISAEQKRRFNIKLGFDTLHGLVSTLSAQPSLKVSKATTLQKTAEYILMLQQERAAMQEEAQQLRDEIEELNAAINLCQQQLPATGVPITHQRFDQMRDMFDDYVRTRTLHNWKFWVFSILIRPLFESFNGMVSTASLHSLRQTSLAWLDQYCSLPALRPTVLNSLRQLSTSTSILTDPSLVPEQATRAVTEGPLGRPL

[6] = target: T2, ChREBP, purified from rat liver; assay: EMSA; purified ChREBP; conditions: label: 32P
Protocol: Purified ChREBP was incubated with PKA and/or PP2A in vitro and measured by gel-shift analysis with the [³²P]-radiolabeled WT oligonucleotide. Purified ChREBP was incubated for 20 min with ATP (1 mM), PKA (0.1 U/μl), 0.2 U/μl PKI, 0.025 U/μl PP2A and the PP2A inhibitor, okadaic acid (10 nM).

CCCC(=O)Nc1ncnc2c1ncn2[C@@H]1O[C@@H]2COP(=O)(O)O[C@H]2[C@H]1OC(=O)CCC [db-cAMP, Dibutyryl (db)-cAMP]
transcriptional activity of S196A+T666A ChREBP double mutant (L-PK gene): not inhibited
export of GFP-ChREBP from nuclei to cytoplasm (GFP-fused ChREBP): not exported
time after injection to inactivation of ChREBP DNA-binding activity in liver nuclear extracts (ChREBP [1]): ≤ 10 min

CCCCCCCC(=O)O [octanoate]
increase of AMPK activity compared to absence of fatty acid (AMPK): about two-fold
AMP (cultured hepatocytes): 942 ± 106 nmol/g cells
AMP/ATP ratio (cultured hepatocytes): 0.30 ± 0.03

PP2A: catalytic subunit of protein phosphatase 2A
DNA-binding activity of inactivated ChREBP (ChREBP [2]): restored
DNA-binding activity of 32P-phosphorylated bHLH/ZIP domain on incubation with PP2A [3]: complete recovering of the activity

catalytic subunit of cAMP-dependent protein kinase (PKA)
radiolabeling of ChREBP with γ-[32P]-ATP (SDS-PAGE) [4]: leads to radiolabeling of ChREBP

B1: DNA-affinity column ChRE (dsDNA)
DNA 1: CATGGGCGCACGGGGCACTCCCGTGGTTCC
DNA 2: GGAACCACGGGAGTGCCCCGTGCGCCCATG
binding result [5]: binds

B2: LPK ChRE WT (dsDNA)
DNA 1: GGGCGCACGGGGCACTCCCGTGGTTCC
DNA 2: GGAACCACGGGAGTGCCCCGTGCGCCC
binding result [6]: binds
